Results reported in patent publication US5358951A, “Angiotensin II receptor blocking 2, 3, 6 substituted quinazolinones” (American Cyanamid Company, priority 1993, dated 1994).

Tested on: vasopressor response of angiotensin II
Assay: AII Challenge: antagonism of angiotensin II vasopressor response;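 for Response Average Change: post-dose Angiotensin II-evoked rise in systolic blood pressure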
Assay type: in vivo
Conditions: for inhibition in vivo at 1 mg/kg / inhibition in vivo at 5 mg/kg: Rattus norvegicus; for inhibition in vivo at 1 mg/kg: iv; for inhibition in vivo at 5 mg/kg: po
Outline: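 Conscious male SHR (16-20 weeks) with aortic and caval cannulae received angiotensin II at 0.05 and 0.1 ug/kg i.v. before and 30-300 min after compound dosing (i.v., i.p. or oral). Blockade is expressed as % of each rat's predose rise in systolic pressure.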

For `CCCCc1nc2ccc([C@@]3(C)C[C@@H]4CCC(C)(C)N4O3)cc2c(=O)n1Cc1ccc(-c2ccccc2-c2nnn[nH]2)cc1` (relative stereo) [Example 66, Cis-2-Butyl-6-(hexahydro-2,6,6-trimethylpyrrolo[1,2-b]isoxazol-2-yl)-3-[[2'-(1H-tetrazol-5-yl)[1,1'-biphenyl]-4-yl]methyl]-4(3H)-quinazolinone], the “Response Average Change” value (1 mg/kg i.v., AII 0.05 mcg/kg IV, 30 min post dose) was 2.5 mmHg, the “Response Average Change” value (1 mg/kg i.v., AII 0.05 mcg/kg IV, 60 min post dose) was 0 mmHg and the “Response Average Change” value (1 mg/kg i.v., AII 0.05 mcg/kg IV, 90 min post dose) was 9 mmHg. The “Response Average Change” value (1 mg/kg i.v., AII 0.05 mcg/kg IV, 120 min post dose) was 11.5 mmHg, the “Response Average Change” value (1 mg/kg i.v., AII 0.05 mcg/kg IV, 180 min post dose) was 15 mmHg and the “Response Average Change” value (1 mg/kg i.v., AII 0.05 mcg/kg IV, 240 min post dose) was 12.5 mmHg. For the same molecule, the “Response Average Change” value (1 mg/kg i.v., AII 0.05 mcg/kg IV, 300 min post dose) was 20 mmHg, the “Response Average Change” value (1 mg/kg i.v., AII 0.1 mcg/kg IV, 30 min post dose) was 5 mmHg and the “Response Average Change” value (1 mg/kg i.v., AII 0.1 mcg/kg IV, 60 min post dose) was 2.5 mmHg. The “Response Average Change” value (1 mg/kg i.v., AII 0.1 mcg/kg IV, 90 min post dose) was 7.5 mmHg, the “Response Average Change” value (1 mg/kg i.v., AII 0.1 mcg/kg IV, 120 min post dose) was 7.5 mmHg and the “Response Average Change” value (1 mg/kg i.v., AII 0.1 mcg/kg IV, 180 min post dose) was 14 mmHg. The “Response Average Change” value (1 mg/kg i.v., AII 0.1 mcg/kg IV, 240 min post dose) was 14 mmHg, the “Response Average Change” value (1 mg/kg i.v., AII 0.1 mcg/kg IV, 300 min post dose) was 17.5 mmHg and the “Response Average Change” value (5 mg/kg P.O., AII 0.05 mcg/kg IV, 30 min post dose) was 10 mmHg. The “Response Average Change” value (5 mg/kg P.O., AII 0.05 mcg/kg IV, 60 min post dose) was 7.5 mmHg, the “Response Average Change” value (5 mg/kg P.O., AII 0.05 mcg/kg IV, 90 min post dose) was 3 mmHg and the “Response Average Change” value (5 mg/kg P.O., AII 0.05 mcg/kg IV, 120 min post dose) was 7.5 mmHg. For the same molecule, the “Response Average Change” value (5 mg/kg P.O., AII 0.05 mcg/kg IV, 180 min post dose) was 5 mmHg, the “Response Average Change” value (5 mg/kg P.O., AII 0.05 mcg/kg IV, 240 min post dose) was 5 mmHg and the “Response Average Change” value (5 mg/kg P.O., AII 0.05 mcg/kg IV, 300 min post dose) was 10 mmHg. The “Response Average Change” value (5 mg/kg P.O., AII 0.1 mcg/kg IV, 30 min post dose) was 21 mmHg, the “Response Average Change” value (5 mg/kg P.O., AII 0.1 mcg/kg IV, 60 min post dose) was 17.5 mmHg and the “Response Average Change” value (5 mg/kg P.O., AII 0.1 mcg/kg IV, 90 min post dose) was 2.5 mmHg. For the same molecule, the “Response Average Change” value (5 mg/kg P.O., AII 0.1 mcg/kg IV, 120 min post dose) was 7.5 mmHg, the “Response Average Change” value (5 mg/kg P.O., AII 0.1 mcg/kg IV, 180 min post dose) was 12.5 mmHg and the “Response Average Change” value (5 mg/kg P.O., AII 0.1 mcg/kg IV, 240 min post dose) was 10 mmHg. For the same molecule, the “Response Average Change” value (5 mg/kg P.O., AII 0.1 mcg/kg IV, 300 min post dose) was 10 mmHg, the inhibition in vivo at 1 mg/kg (0.5 h, 1 mg/kg i.v., AII 0.05 mcg/kg IV, 30 min post dose) was 93% and the inhibition in vivo at 1 mg/kg (0.5 h, 1 mg/kg i.v., AII 0.1 mcg/kg IV, 30 min post dose) was 89%. For the same molecule, the inhibition in vivo at 1 mg/kg (1 h, 1 mg/kg i.v., AII 0.05 mcg/kg IV, 60 min post dose) was 100%, the inhibition in vivo at 1 mg/kg (1 h, 1 mg/kg i.v., AII 0.1 mcg/kg IV, 60 min post dose) was 94% and the inhibition in vivo at 1 mg/kg (2 h, 1 mg/kg i.v., AII 0.05 mcg/kg IV, 120 min post dose) was 69%. The inhibition in vivo at 1 mg/kg (2 h, 1 mg/kg i.v., AII 0.1 mcg/kg IV, 120 min post dose) was 83%, the inhibition in vivo at 1 mg/kg (3 h, 1 mg/kg i.v., AII 0.05 mcg/kg IV, 180 min post dose) was 60% and the inhibition in vivo at 1 mg/kg (3 h, 1 mg/kg i.v., AII 0.1 mcg/kg IV, 180 min post dose) was 68%. It also gave an inhibition in vivo at 1 mg/kg (4 h, 1 mg/kg i.v., AII 0.05 mcg/kg IV, 240 min post dose) of 67%, an inhibition in vivo at 1 mg/kg (4 h, 1 mg/kg i.v., AII 0.1 mcg/kg IV, 240 min post dose) of 68% and an inhibition in vivo at 1 mg/kg (5 h, 1 mg/kg i.v., AII 0.05 mcg/kg IV, 300 min post dose) of 47%. The inhibition in vivo at 1 mg/kg (5 h, 1 mg/kg i.v., AII 0.1 mcg/kg IV, 300 min post dose) was 60%, the inhibition in vivo at 1 mg/kg ([…], 1 mg/kg i.v., AII 0.05 mcg/kg IV, 90 min post dose) was 76% and the inhibition in vivo at 1 mg/kg ([…], 1 mg/kg i.v., AII 0.1 mcg/kg IV, 90 min post dose) was 83%. For the same molecule, the inhibition in vivo at 5 mg/kg (0.5 h, 5 mg/kg P.O., AII 0.05 mcg/kg IV, 30 min post dose) was 77%, the inhibition in vivo at 5 mg/kg (0.5 h, 5 mg/kg P.O., AII 0.1 mcg/kg IV, 30 min post dose) was 52% and the inhibition in vivo at 5 mg/kg (1 h, 5 mg/kg P.O., AII 0.05 mcg/kg IV, 60 min post dose) was 83%. It also gave an inhibition in vivo at 5 mg/kg (1 h, 5 mg/kg P.O., AII 0.1 mcg/kg IV, 60 min post dose) of 60%, an inhibition in vivo at 5 mg/kg (2 h, 5 mg/kg P.O., AII 0.05 mcg/kg IV, 120 min post dose) of 83% and an inhibition in vivo at 5 mg/kg (2 h, 5 mg/kg P.O., AII 0.1 mcg/kg IV, 120 min post dose) of 83%. For the same molecule, the inhibition in vivo at 5 mg/kg (3 h, 5 mg/kg P.O., AII 0.05 mcg/kg IV, 180 min post dose) was 89%, the inhibition in vivo at 5 mg/kg (3 h, 5 mg/kg P.O., AII 0.1 mcg/kg IV, 180 min post dose) was 72% and the inhibition in vivo at 5 mg/kg (4 h, 5 mg/kg P.O., AII 0.05 mcg/kg IV, 240 min post dose) was 89%. It also gave an inhibition in vivo at 5 mg/kg (4 h, 5 mg/kg P.O., AII 0.1 mcg/kg IV, 240 min post dose) of 77%, an inhibition in vivo at 5 mg/kg (5 h, 5 mg/kg P.O., AII 0.05 mcg/kg IV, 300 min post dose) of 77% and an inhibition in vivo at 5 mg/kg (5 h, 5 mg/kg P.O., AII 0.1 mcg/kg IV, 300 min post dose) of 77%. The inhibition in vivo at 5 mg/kg ([…], 5 mg/kg P.O., AII 0.05 mcg/kg IV, 90 min post dose) was 93% and the inhibition in vivo at 5 mg/kg ([…], 5 mg/kg P.O., AII 0.1 mcg/kg IV, 90 min post dose) was 94%.
